Laboratory results: patent US7858621B2 (Amorepacific Corporation, priority 2006, dated 2010)

Each compound was assayed against T1, vanilloid receptor (Rattus norvegicus, UniProt O35433) (assay: 45Ca influx test in cultured neonatal rat DRG neurons, inhibition of capsaicin response). Settings: neonatal rat DRG neurons, capsaicin 0.5 μM, 45Ca influx; read-out: Antagonist Calcium Uptake Test (IC50).
T1 construct: DRG nerve cells from the primary culture of 2 days were equilibrated; endogenous in cells; host or cells: primary culture of dorsal root ganglion neurons from neonatal SD rats
T1 sequence (O35433 whole entry): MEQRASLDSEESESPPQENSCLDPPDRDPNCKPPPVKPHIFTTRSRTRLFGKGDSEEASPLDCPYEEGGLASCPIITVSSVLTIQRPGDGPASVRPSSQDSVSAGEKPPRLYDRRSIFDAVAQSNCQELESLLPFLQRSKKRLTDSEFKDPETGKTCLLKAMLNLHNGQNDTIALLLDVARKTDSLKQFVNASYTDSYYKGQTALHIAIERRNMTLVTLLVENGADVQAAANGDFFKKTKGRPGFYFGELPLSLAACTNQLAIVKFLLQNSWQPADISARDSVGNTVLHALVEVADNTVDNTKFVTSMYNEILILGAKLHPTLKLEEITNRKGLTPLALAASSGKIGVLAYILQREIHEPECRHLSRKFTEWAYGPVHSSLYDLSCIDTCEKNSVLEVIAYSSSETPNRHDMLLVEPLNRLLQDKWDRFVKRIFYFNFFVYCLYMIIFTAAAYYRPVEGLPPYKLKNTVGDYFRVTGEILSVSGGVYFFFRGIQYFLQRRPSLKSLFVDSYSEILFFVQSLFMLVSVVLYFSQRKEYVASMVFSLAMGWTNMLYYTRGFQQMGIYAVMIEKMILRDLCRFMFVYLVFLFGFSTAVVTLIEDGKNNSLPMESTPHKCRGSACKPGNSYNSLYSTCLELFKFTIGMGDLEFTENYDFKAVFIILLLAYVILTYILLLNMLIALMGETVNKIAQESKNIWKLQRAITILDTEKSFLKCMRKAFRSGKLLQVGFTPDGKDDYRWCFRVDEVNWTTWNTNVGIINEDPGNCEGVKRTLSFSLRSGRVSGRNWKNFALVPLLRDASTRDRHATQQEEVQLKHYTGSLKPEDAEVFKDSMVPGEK
Assay type: cell-based
Outline: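 Neonatal SD rat DRG neurons, cultured 2 days with NGF (200 ng/ml) and Ara-C, were washed in HEPES (10 mM, pH 7.4)-buffered Ca/Mg-free HBSS. Test compound was added with capsaicin (final 0.5 μM) and 45Ca (10 μCi/ml) for 10 min at room temperature; 45Ca uptake counted by scintillation after SDS elution.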
`CCCCOc1nc(C(F)(F)F)ccc1/C=C/C(=O)NCc1cc(F)c(NS(C)(=O)=O)c(C(F)(F)F)c1` [Example 168, 3-(2-Butoxy-6-trifluoromethyl-pyridin-3-yl)-N-(3-fluoro-4-methanesulfonylamino-5-trifluoromethyl-benzyl)-acrylamide] was tested, and the IC50 was 1800 nM.
In the case of `CCCCOc1nc(C(F)(F)F)ccc1/C=C/C(=O)N[C@H](C)c1ccc(NS(C)(=O)=O)c(F)c1` [Example 169, (R)-3-(2-Butoxy-6-trifluoromethyl-pyridin-3-yl)-N-[1-(3-fluoro-4-methanesulfonylamino-phenyl)-ethyl]-acrylamide], the IC50 is reported as 170 nM.
`CCCCOc1nc(C(F)(F)F)ccc1/C=C/C(=O)NCc1ccc(NS(C)(=O)=O)c(C)c1` [Example 170, 3-(2-Butoxy-6-trifluoromethyl-pyridin-3-yl)-N-(4-methanesulfonylamino-3-methyl-benzyl)-acrylamide] gave an IC50 of 340 nM.
For `C#Cc1cc(CNC(=O)/C=C/c2ccc(C(F)(F)F)nc2SCC)cc(F)c1NS(C)(=O)=O` [Example 171, 3-(2-Ethylthio-6-trifluoromethyl-pyridin-3-yl)-N-(3-ethynyl-5-fluoro-4-methanesulfonylamino-benzyl)-acrylamide], the IC50 was 180 nM.
`Cc1cc(CNC(=O)/C=C/c2ccc(C(F)(F)F)nc2CCc2ccccc2)ccc1NS(C)(=O)=O` [Example 172, N-(4-Methanesulfonylamino-3-methyl-benzyl)-3-(2-phenethyl-6-trifluoromethyl-pyridin-3-yl)-acrylamide] gave an IC50 of 69 nM.
Compound `Cc1cc(CNC(=O)/C=C/c2ccc(C(F)(F)F)nc2CCc2ccccc2)cc(F)c1NS(C)(=O)=O` [Example 173, N-(3-Fluoro-4-methanesulfonylamino-5-methyl-benzyl)-3-(2-phenethyl-6-trifluoromethyl-pyridin-3-yl)-acrylamide] has an IC50 of 200 nM.
`Cc1cc(CNC(=O)/C=C/c2ccc(C(F)(F)F)nc2CC(C)C)ccc1NS(C)(=O)=O` [Example 174, 3-(2-Isobutyl-6-trifluoromethyl-pyridin-3-yl)-N-(4-methanesulfonylamino-3-methyl-benzyl)-acrylamide] was tested, and the IC50 was 70 nM.
Compound `CC(C)Cc1nc(C(F)(F)F)ccc1/C=C/C(=O)N[C@H](C)c1ccc(NS(C)(=O)=O)c(F)c1` [Example 175, (R)—N-[1-(3-Fluoro-4-methanesulfonylamino-phenyl)-ethyl]-3-(2-isobutyl-6-trifluoromethyl-pyridin-3-yl)-acrylamide] has an IC50 of 24 nM.
`CCC(C)Nc1nc(C(F)(F)F)ccc1/C=C/C(=O)NCc1ccc(NS(C)(=O)=O)c(C)c1` (centres unmarked) [Example 176, 3-(2-sec-Butylamino-6-trifluoromethyl-pyridin-3-yl)-N-(4-methanesulfonylamino-3-methyl-benzyl)-acrylamide] gave an IC50 of 57 nM.
Work on `C#Cc1cc(CNC(=O)/C=C/c2ccc(C(F)(F)F)nc2SC(C)C)cc(F)c1NS(C)(=O)=O` [Example 177, N-(3-Ethynyl-5-fluoro-4-methanesulfonylamino-benzyl)-3-(2-isopropylthio-6-trifluoromethyl-pyridin-3-yl)-acrylamide] yielded an IC50 of 200 nM.
With `CC(C)Sc1nc(C(F)(F)F)ccc1/C=C/C(=O)NCc1ccc(NS(C)(=O)=O)c(F)c1` [Example 178, N-(3-Fluoro-4-methanesulfonylamino-benzyl)-3-(2-isopropylthio-6-trifluoromethyl-pyridin-3-yl)-acrylamide] the IC50 was 920 nM.
In the case of `CS(=O)(=O)Nc1ccc(CNC(=O)/C=C/c2ccc(C(F)(F)F)nc2-c2cccc(F)c2)cc1F` [Example 179, N-(3-Fluoro-4-methanesulfonylamino-benzyl)-3-[2-(3-fluoro-phenyl)-6-trifluoromethyl-pyridin-3-yl]-acrylamide], the IC50 is reported as 780 nM.
`Cc1cc(CNC(=O)/C=C/c2ccc(C(F)(F)F)nc2-c2cccc(F)c2)cc(F)c1NS(C)(=O)=O` [Example 180, N-(3-Fluoro-4-methanesulfonylamino-5-methyl-benzyl)-3-[2-(3-fluoro-phenyl)-6-trifluoromethyl-pyridin-3-yl]-acrylamide] gave an IC50 of 460 nM.
For `C[C@@H](NC(=O)/C=C/c1ccc(C(F)(F)F)nc1-c1cccc(F)c1)c1ccc(NS(C)(=O)=O)c(F)c1` [Example 181, (R)—N-[1-(3-Fluoro-4-methanesulfonylamino-phenyl)-ethyl]-3-[2-(3-fluoro-phenyl)-6-trifluoromethyl-pyridin-3-yl]-acrylamide], the IC50 was 270 nM.
`Cc1cc(CNC(=O)/C=C/c2ccc(C(F)(F)F)nc2-c2cccc(F)c2)ccc1NS(C)(=O)=O` [Example 182, 3-[2-(3-Fluoro-phenyl)-6-trifluoromethyl-pyridin-3-yl]-N-(4-methanesulfonylamino-3-methyl-benzyl)-acrylamide] was tested, and the IC50 was 400 nM.
`C[C@@H](NC(=O)/C=C/c1ccc(C(F)(F)F)nc1N1CCCCC1)c1ccc(NS(C)(=O)=O)c(F)c1` [Example 183, (R)—N-[1-(3-Fluoro-4-methanesulfonylamino-phenyl)-ethyl]-3-(2-piperid-1-yl-6-trifluoromethyl-pyridin-3-yl)-acrylamide] was tested, and the IC50 was 220 nM.
Work on `Cc1cc(CNC(=O)/C=C/c2ccc(C(F)(F)F)nc2N2CCCCC2)ccc1NS(C)(=O)=O` [Example 184, N-(4-Methanesulfonylamino-3-methyl-benzyl)-3-(2-piperid-1-yl-6-trifluoromethyl-pyridin-3-yl)-acrylamide] yielded an IC50 of 230 nM.
`C#Cc1cc(CNC(=O)/C=C/c2ccc(C(F)(F)F)nc2SCCC)cc(F)c1NS(C)(=O)=O` [Example 185, N-(3-Ethynyl-5-fluoro-4-methanesulfonylamino-benzyl)-3-(2-propylthio-6-trifluoromethyl-pyridin-3-yl)-acrylamide] gave an IC50 of 280 nM.
`CCCSc1nc(C(F)(F)F)ccc1/C=C/C(=O)NCc1ccc(NS(C)(=O)=O)c(C)c1` [Example 186, N-(4-Methanesulfonylamino-3-methyl-benzyl)-3-(2-propylthio-6-trifluoromethyl-pyridin-3-yl)-acrylamide] was tested, and the IC50 was 510 nM.
For `CCCCNc1nc(C(F)(F)F)ccc1/C=C/C(=O)NCc1ccc(NS(C)(=O)=O)c(C)c1` [Example 187, N-(4-Methanesulfonylamino-3-methyl-benzyl)-3-(2-butylamino-6-trifluoromethyl-pyridin-3-yl)-acrylamide], the IC50 was 75 nM.
In the case of `CS(=O)(=O)Nc1c(F)cc(CNC(=O)/C=C/c2ccc(C(F)(F)F)nc2CCc2ccccc2)cc1C(F)(F)F` [Example 189, N-(3-Fluoro-4-methanesulfonylamino-5-trifluoromethyl-benzyl)-3-(2-phenethyl-6-trifluoromethyl-pyridin-3-yl)-acrylamide], the IC50 is reported as 400 nM.
In the case of `C#Cc1cc(CNC(=O)/C=C/c2ccc(C(F)(F)F)nc2C#CCN(CC)CC)cc(F)c1NS(C)(=O)=O` [Example 190], the IC50 is reported as 2300 nM.
With `Cc1cc(CNC(=O)/C=C/c2ccc(C(F)(F)F)nc2NCc2ccccc2)ccc1NS(C)(=O)=O` [Example 191, 3-(2-Benzylamino-6-trifluoromethyl-pyridin-3-yl)-N-(4-methanesulfonylamino-3-methyl-benzyl)-acrylamide] the IC50 was 220 nM.
With `CCCCc1nc(C(F)(F)F)ccc1/C=C/C(=O)NCc1cc(C)c(NS(C)(=O)=O)c(F)c1` [Example 192, 3-(2-Butyl-6-trifluoromethyl-pyridin-3-yl)-N-(3-fluoro-4-methanesulfonylamino-5-methyl-benzyl)-acrylamide] the IC50 was 90 nM.
`CCCCc1nc(C(F)(F)F)ccc1/C=C/C(=O)N[C@H](C)c1ccc(NS(C)(=O)=O)c(F)c1` [Example 193, (R)-3-(2-Butyl-6-trifluoromethyl-pyridin-3-yl)-N-[1-(3-fluoro-4-methanesulfonylamino-phenyl)-ethyl]-acrylamide] gave an IC50 of 42 nM.
Work on `CCCCc1nc(C(F)(F)F)ccc1/C=C/C(=O)NCc1ccc(NS(C)(=O)=O)c(C)c1` [Example 194, 3-(2-Butyl-6-trifluoromethyl-pyridin-3-yl)-N-(4-methanesulfonylamino-3-methyl-benzyl)-acrylamide] yielded an IC50 of 76 nM.
In the case of `C[C@@H](NC(=O)/C=C/c1ccc(C(F)(F)F)nc1NCc1ccccc1)c1ccc(NS(C)(=O)=O)c(F)c1` [Example 195, (R)-3-(2-Benzylamino-6-trifluoromethyl-pyridin-3-yl)-N-[1-(3-fluoro-4-methanesulfonylamino-phenyl)-ethyl]-acrylamide], the IC50 is reported as 67 nM.
With `C#Cc1cc(CNC(=O)/C=C/c2ccc(C(F)(F)F)nc2NCc2ccccc2)cc(F)c1NS(C)(=O)=O` [Example 196, 3-(2-Benzylamino-6-trifluoromethyl-pyridin-3-yl)-N-(3-ethynyl-5-fluoro-4-methanesulfonylamino-benzyl)-acrylamide] the IC50 was 76 nM.
Work on `C#Cc1cc(CNC(=O)/C=C/c2ccc(C(F)(F)F)nc2CCCCC)cc(F)c1NS(C)(=O)=O` [Example 197, N-(3-Ethynyl-5-fluoro-4-methanesulfonylamino-benzyl)-3-(2-pentyl-6-trifluoromethyl)-pyridin-3-yl-acrylamide] yielded an IC50 of 65 nM.
Work on `CCCCCc1nc(C(F)(F)F)ccc1/C=C/C(=O)NCc1ccc(NS(C)(=O)=O)c(C)c1` [Example 198, N-(4-Methanesulfonylamino-3-methyl-benzyl)-3-(2-pentyl-6-trifluoromethyl)-pyridin-3-yl-acrylamide] yielded an IC50 of 54 nM.
`CCCCCc1nc(C(F)(F)F)ccc1/C=C/C(=O)NCc1cc(F)c(NS(C)(=O)=O)c(F)c1` [Example 199, N-(3,5-Difluoro-4-methanesulfonylamino-benzyl)-3-(2-pentyl-6-trifluoromethyl)-pyridin-3-yl-acrylamide] showed an IC50 of 92 nM.
Work on `CS(=O)(=O)Nc1c(F)cc(CNC(=O)/C=C/c2ccc(C(F)(F)F)nc2N2CCCCC2)cc1F` [Example 200, N-(4-Methanesulfonylamino-3,5-difluoro-benzyl)-3-(2-piperid-1-yl-6-trifluoromethyl-pyridin-3-yl)-acrylamide] yielded an IC50 of 580 nM.
